A short description of data set [1]: Cmax in ICR (CD-1) mouse at 50 mg/kg, ip measured for 24 hrs by LC-MS/MS analysis. Conditions: in vivo. The format is ADME, organism-based. Also noted: time 24 hrs, dose 50 mg/kg, route ip.
A further data set deals with T1, Histone deacetylase 8 (Homo sapiens, UniProt Q9BY41).
T1 sequence (Q9BY41 whole entry): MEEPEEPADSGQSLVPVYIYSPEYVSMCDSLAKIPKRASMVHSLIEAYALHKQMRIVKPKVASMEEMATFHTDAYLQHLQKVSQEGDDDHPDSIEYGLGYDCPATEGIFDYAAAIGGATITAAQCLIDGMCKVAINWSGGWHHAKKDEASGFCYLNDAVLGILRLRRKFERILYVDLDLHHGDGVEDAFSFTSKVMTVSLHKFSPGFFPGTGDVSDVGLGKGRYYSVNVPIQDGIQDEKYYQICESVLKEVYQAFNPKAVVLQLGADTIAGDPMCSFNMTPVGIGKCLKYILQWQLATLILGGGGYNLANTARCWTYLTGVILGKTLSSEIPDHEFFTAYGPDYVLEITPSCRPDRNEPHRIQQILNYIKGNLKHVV
As to the kind of experiment: Inhibition of HDAC8 (unknown origin) using Boc-Lys-(trifluoroacetyl)-AMC as substrate incubated for 30 mins by fluorescence based analysis.

A short description of data set [2]: Half life in ICR (CD-1) mouse at 50 mg/kg, ip measured for 24 hrs by LC-MS/MS analysis. Conditions: in vivo. The format is ADME, organism-based.
A short description of data set [3]: Metabolic stability in mouse liver microsomes assessed as intrinsic clearance in presence of NADPH by LC-MS/MS analysis. The format is ADME, Microsome. As to conditions: read-out: CLH.
Data set [4] in a line: Volume of distribution at steady state in ICR (CD-1) mouse at 10 mg/kg, iv measured for 24 hrs by LC-MS/MS analysis. The format is ADME, organism-based. Conditions: in vivo.
Data set [5] deals with T2, Tyrosine-protein kinase JAK3 (Homo sapiens, UniProt P52333).
T2 sequence (P52333 whole entry): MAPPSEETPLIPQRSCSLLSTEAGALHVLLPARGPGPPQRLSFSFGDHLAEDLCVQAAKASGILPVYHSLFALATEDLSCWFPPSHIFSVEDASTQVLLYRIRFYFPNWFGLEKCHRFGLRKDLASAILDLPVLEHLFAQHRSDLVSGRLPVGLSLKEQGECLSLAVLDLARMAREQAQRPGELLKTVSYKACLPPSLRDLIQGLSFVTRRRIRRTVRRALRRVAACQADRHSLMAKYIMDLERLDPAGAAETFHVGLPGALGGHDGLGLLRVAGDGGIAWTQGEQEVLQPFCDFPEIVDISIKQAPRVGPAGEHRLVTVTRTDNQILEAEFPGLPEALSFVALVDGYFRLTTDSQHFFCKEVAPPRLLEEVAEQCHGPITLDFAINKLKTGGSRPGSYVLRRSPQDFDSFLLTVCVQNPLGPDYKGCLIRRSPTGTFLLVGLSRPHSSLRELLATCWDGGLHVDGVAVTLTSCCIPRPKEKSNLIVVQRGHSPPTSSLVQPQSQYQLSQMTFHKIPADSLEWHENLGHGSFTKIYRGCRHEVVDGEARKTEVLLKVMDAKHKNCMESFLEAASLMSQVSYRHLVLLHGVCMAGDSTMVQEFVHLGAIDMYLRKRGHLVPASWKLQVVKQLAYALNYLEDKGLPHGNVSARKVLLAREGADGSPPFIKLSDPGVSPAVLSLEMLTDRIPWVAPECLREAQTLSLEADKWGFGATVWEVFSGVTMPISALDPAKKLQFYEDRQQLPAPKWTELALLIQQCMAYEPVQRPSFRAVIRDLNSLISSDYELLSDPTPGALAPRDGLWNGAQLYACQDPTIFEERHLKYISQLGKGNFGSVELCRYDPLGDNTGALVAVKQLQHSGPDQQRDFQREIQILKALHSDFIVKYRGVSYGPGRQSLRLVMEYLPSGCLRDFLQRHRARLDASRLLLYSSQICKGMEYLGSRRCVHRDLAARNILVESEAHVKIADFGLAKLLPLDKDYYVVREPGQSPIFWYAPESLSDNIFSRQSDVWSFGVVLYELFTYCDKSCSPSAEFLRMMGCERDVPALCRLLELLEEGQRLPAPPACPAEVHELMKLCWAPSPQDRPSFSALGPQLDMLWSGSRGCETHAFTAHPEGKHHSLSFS
The data set is described as follows: Inhibition of JAK3 (unknown origin) incubated for 40 mins in presence of ATP by Kinase-glo luminescent assay.

Data set [6] can be described thus: Bioavailability in ICR (CD-1) mouse at 50 mg/kg, ip measured for 24 hrs by LC-MS/MS analysis. The class given is ADME, organism-based. As to conditions: in vivo, ip, 50 mg/kg, 24 h.
Data set [7] can be described thus: Tmax in ICR (CD-1) mouse at 50 mg/kg, ip measured for 24 hrs by LC-MS/MS analysis. The format is ADME, organism-based. Conditions: in vivo.
A further data set addresses T3, Histone deacetylase 11 (Homo sapiens, UniProt Q96DB2).
T3 sequence (Q96DB2 whole entry): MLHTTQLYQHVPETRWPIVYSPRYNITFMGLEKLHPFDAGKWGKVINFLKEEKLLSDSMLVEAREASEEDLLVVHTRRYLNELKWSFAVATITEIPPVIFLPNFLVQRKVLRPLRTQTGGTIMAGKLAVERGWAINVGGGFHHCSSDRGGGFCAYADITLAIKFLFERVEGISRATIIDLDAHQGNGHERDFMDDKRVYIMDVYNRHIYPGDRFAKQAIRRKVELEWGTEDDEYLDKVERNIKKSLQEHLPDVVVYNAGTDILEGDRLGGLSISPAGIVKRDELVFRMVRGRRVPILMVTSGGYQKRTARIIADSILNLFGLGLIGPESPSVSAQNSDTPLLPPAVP
As to the kind of experiment: Inhibition of HDAC11 (unknown origin) using Ac-ETDKrnyr-AMC as substrate incubated for 30 mins by fluorescence based analysis.

Data set [8] is described as follows: Toxicity in athymic BALB/c nude mouse xenografted with human MDA-MB-231 cells assessed as reduction in body weight at 25 to 50 mg/kg/day, ip administered for 28 consecutive days. Conditions: in vivo, 672 h, dose 25-50 mg/kg/day, time 28 day. The format is organism-based. (In xenograft studies the graft and the host belong to different species.)
Data set [9] in a line: MRT (0 to t) in ICR (CD-1) mouse at 50 mg/kg, ip measured for 24 hrs by LC-MS/MS analysis. The class given is ADME, organism-based. As to conditions: in vivo.
Data set [10] can be described thus: MRT (0 to t) in ICR (CD-1) mouse at 10 mg/kg, iv measured for 24 hrs by LC-MS/MS analysis. The class given is ADME, organism-based. As to conditions: in vivo.
Data set [11] in a line: AUC (0 to t) in ICR (CD-1) mouse at 50 mg/kg, ip measured for 24 hrs by LC-MS/MS analysis. Conditions: in vivo. The class given is ADME, organism-based. Further details: dose 50 mg/kg, time 24 hrs, route ip.
The next data set relates to GES1. The data set is described as follows: Cytotoxicity against human GES1 cells at 1 uM incubated for 48 hrs by MTT assay. The format is toxicity, cell-based. Conditions: ges1, 48 h. A general note: Formazan colour is commonly taken as a measure of viable cells.
The target in data set [12] is Non-receptor tyrosine-protein kinase TYK2 (Homo sapiens, UniProt P29597). The data set is described as follows: Inhibition of TYK2 (unknown origin) incubated for 40 mins in presence of ATP by Kinase-glo luminescent assay.

The source of these data is ChEMBL document CHEMBL5370605, “Discovery of Novel Fedratinib-Based HDAC/JAK/BRD4 Triple Inhibitors with Remarkable Antitumor Activity against Triple Negative Breast Cancer” (J Med Chem, 2023).

A word on the Cmax: it is the highest concentration seen after dosing. For orientation: IC50 means the concentration that inhibits the measured activity by half. Usually half-life stands for the time in which the quantity being followed falls by half. Read a low half-life as rapid decline. Broadly, the Vdss is the apparent volume that relates the amount in the body to the concentration in plasma or blood. One may read the Tmax as the time from dosing to the highest level. The term MRT last denotes the average time that molecules of a dose stay in the body. What is called AUC(0-t) is exposure summed from dosing to a finite time, without extrapolation to infinity.

Non-receptor tyrosine-protein kinase TYK2, sequence (P29597 whole entry): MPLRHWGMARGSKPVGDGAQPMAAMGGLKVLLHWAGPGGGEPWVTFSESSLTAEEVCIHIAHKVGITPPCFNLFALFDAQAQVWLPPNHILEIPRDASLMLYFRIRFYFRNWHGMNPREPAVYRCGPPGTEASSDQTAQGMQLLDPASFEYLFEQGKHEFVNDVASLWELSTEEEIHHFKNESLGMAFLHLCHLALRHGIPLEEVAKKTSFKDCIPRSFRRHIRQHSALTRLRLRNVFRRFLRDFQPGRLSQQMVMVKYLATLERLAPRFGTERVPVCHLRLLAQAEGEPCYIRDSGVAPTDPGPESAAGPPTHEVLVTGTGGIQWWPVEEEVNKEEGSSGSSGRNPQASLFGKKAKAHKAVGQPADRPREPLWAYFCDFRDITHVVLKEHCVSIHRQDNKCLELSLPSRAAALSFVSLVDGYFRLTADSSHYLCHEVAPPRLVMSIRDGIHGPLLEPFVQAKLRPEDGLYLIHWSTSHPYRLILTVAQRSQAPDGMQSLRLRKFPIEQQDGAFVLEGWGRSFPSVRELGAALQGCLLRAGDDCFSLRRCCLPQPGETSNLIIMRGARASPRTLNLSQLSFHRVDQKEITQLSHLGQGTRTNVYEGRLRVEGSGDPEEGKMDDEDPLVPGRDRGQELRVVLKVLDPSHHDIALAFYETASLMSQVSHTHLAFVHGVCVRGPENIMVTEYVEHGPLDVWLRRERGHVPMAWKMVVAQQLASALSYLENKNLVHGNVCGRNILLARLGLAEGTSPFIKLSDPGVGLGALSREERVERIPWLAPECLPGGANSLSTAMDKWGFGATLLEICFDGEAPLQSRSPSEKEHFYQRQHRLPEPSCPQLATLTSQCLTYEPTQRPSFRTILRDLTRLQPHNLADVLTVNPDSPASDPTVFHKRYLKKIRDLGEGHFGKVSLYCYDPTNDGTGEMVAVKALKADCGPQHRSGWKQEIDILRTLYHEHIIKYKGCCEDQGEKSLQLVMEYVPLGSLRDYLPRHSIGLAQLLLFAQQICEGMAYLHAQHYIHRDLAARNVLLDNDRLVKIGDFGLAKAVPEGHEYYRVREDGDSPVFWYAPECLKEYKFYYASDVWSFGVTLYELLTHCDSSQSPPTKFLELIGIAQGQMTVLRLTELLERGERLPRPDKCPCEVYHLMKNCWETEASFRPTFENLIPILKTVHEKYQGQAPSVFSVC

In turn, `Cc1cnc(Nc2ccc(OCCN3CCCC3)cc2)nc1Nc1ccc(C(=O)NO)cc1` showed a peak concentration (Cmax) in data set [1] of 9560 ng/mL. For the same compound, the IC50 at Histone deacetylase 8 is 160 nM; in data set [5], 91 nM; at Histone deacetylase 11 it was above 5000 nM; in data set [12] it was 99 nM. Also, in data set [2], the half-life was 2.51 h. Moreover, in data set [3], the CLint scaled was determined as 146 mL/min/kg. In data set [4], this compound registered a Vdss of 8.84 L/kg. The F in data set [6] amounted to 151%. Moreover, the time of peak concentration (Tmax) in [7] came out at 0.19 h. For the same compound, the Activity result (in [8]; in the data set with GES1) was “Non-Toxic” in each case. This compound also showed a mean residence time MRT last at 24 h in data set [9] of 2.18 h. In data set [10], the “MRT(t)” value turned out to be 1.66 h. Also, the exposure AUC(0-t) at 24 h in data set [11] came to 14800 ng·h/mL.
